The record followed here is patent US12268674B2, “Mi-2β inhibitor as an immunotherapy agent” (BioVentures, LLC, priority 2021, dated 2025).

The structures appear in SMILES notation.

One series has as its target T1, CPS1 (Homo sapiens, UniProt P31327).
T1 construct: endogenous in cells; host or cells: A375 cell lysate
Nature of the series: ATPase profile (ATP acyl phosphate probe). Type of series: binding. The conditions noted are these: CPS1, SEQ ID NO: 64, labeling site Other.

A short description of series [1]: Tolerability in C57BL/6 mice (body weight, H&E staining of tissues). It counts as in vivo. The conditions noted are these: 30 mg/kg/day for 2 weeks. An excerpt:
FIG. 11 illustrates In vitro assay for Mi-2β inhibitors. A, The inhibitory activity of Z36 for Mi-2β chromatin modulatory activity, measured as fold changes of Mi-2β activity treated with control vehicle. B, The inhibitory activity of Z36-MP5 with IC50 values against Mi-2β at different ATP concentrations. The curves from top to bottom: ATP 300 (μM), ATP 100 (μM), ATP 30 (μM), and ATP 10 (μM). C, The expression of Irf1, Cxc19 and Cxcl10 and Irf1 mRNA in B16F10 cells treated with Z36-MP5 as indicated concentration for 24 hours was determined with RT-qPCR assay. The four bars from left to right: vehicle control, Z36-MP5 5 μM, Z36-MP5 25 μM, and Z36-MP5 100 μM. D, Z36-MP5-treated (25 μM) GFP-labelled B16F10 cells were pretreated with 10 ng/ml of IFN-γ for 24 hours, before co-culture with activated Pmel-1 T cells at a ratio of 1:1 for three days. The fold changes of survival GFP-positive tumor cells were assayed with flow cytometry. Data presents as means±SD E, The body weight changes of C57BL/6J mice treated with Z36-MP5 (30 mg/kg/day) for 2 weeks. Data are mean±SEM (n=5). […]
Z36-MP5 was chosen for further validation and experimental therapeutics in vivo. […] To investigate its cellular inhibitory activity, B16-F10 cells were treated with Z36-MP5 at concentrations ranging from 5 to 100 μM, and the activation of Mi-2β target genes measured by RT-qPCR. […]

The target in the next series is T2, AFG3L2 (Homo sapiens, UniProt Q9Y4W6).
T2 construct: to get the native cell lysate; host or cells: A375 cell lysate
Briefly: ATPase profile (ATP acyl phosphate probe). Type of series: binding. The conditions noted are these: AFG3L2, SEQ ID NO: 29, ATP BS.

For a further series, the target named is T3, ABCE1 (Homo sapiens, UniProt P61221).
T3 construct: to get the native cell lysate; host or cells: A375 cell lysate
Briefly: ATPase profile (ATP acyl phosphate probe). It counts as binding. As to conditions: ABCE1, SEQ ID NO: 15, ATP BS.

The target of the next series is T4, AK5 (Homo sapiens, UniProt Q9Y6K8).
T4 construct: to get the native cell lysate; host or cells: A375 cell lysate
Nature of the series: ATPase profile (ATP acyl phosphate probe). As to conditions: AK5, SEQ ID NO: 36, ATP BS. Type of series: binding.

The next series concerns the target T5, HNRNPU (Homo sapiens, UniProt Q00839).
T5 construct: endogenous in cells; host or cells: A375
Briefly: ATPase profile (ATP acyl phosphate probe). It counts as binding. The conditions noted are these: SEQ ID NO: 92, ATP BS.

The target of the next series is T6, GSS (Homo sapiens, UniProt P48637).
T6 construct: endogenous in cells; host or cells: A375 cell lysate
Nature of the series: ATPase profile (ATP acyl phosphate probe). Type of series: binding.

For the next series, the target named is T7, LONP1 (Homo sapiens, UniProt P36776).
T7 construct: to get the native cell lysate; endogenous in cells; host or cells: A375
Nature of the series: ATPase profile (ATP acyl phosphate probe). Type of series: binding. The conditions noted are these: LONP1, SEQ ID NO: 115, labeling site Other.

The target in another series is T8, ASS1 (Homo sapiens, UniProt P00966).
T8 construct: to get the native cell lysate; host or cells: A375 cell lysate
Nature of the series: ATPase profile (ATP acyl phosphate probe). It counts as binding. The conditions noted are these: ASS1, SEQ ID NO: 43, ATP BS.

A further series addresses T9, PDE12 (Homo sapiens, UniProt Q6L8Q7).
T9 construct: to get the native cell lysate; endogenous in cells; host or cells: A375 cell lysate
Nature of the series: ATPase profile (ATP acyl phosphate probe). The conditions noted are these: PDE12, SEQ ID NO: 155, ATP BS. It counts as binding.

Another series addresses T10, PEX1 (Homo sapiens, UniProt O43933).
T10 construct: to get the native cell lysate; endogenous in cells; host or cells: A375 cell lysate
Nature of the series: ATPase profile (ATP acyl phosphate probe). Type of series: binding. As to conditions: PEX1, SEQ ID NO: 156, ATP BS.

A further series deals with B16F10 cells. Briefly: Co-culture assay of B16F10 cells with activated Pmel-1 T cells. Type of series: cell-based, mouse. The conditions noted are these: 25 μM; IFN-γ pretreated; activated Pmel-1 T cells 1:1, three days. As for the experimental part:
Pmel-1 TCR transgenic mice were purchased from Jackson Laboratory (stock #005023). The CD8 T cells were isolated from spleen and lymph nodes from Pmel-1 transgenic mice using the CD8a^+ T Cell Isolation Kit, mouse (Miltenyi Biotec, Order no: 130-104-075) according to the manufacturer's protocol. Freshly isolated CD8 T cells were stimulated with anti-CD3/CD28 beads (Thermo Fisher Scientific #11452D) for 3 days, and then the recombinant mouse IL-2 (Biolegend, #575406) was added at 20 ng/ml. After 6 days activation, T cells were used for co-culture with B16F10 cells.
B16F10 cells with shMi-2β or shScrambles were transfected with GFP expression vector pcDNA3-EGFP (Plasmid #13031), and the stable cell line was selection with 800 μg/mL G418. For in vitro validation, Mi-2β-deficient B16F10 cells (GFP positive) were mixed with control B16F10 cells (GFP negative) at a 1:1 ratio. The cells were treated with 10 ng/ml of IFN-γ for 24 hours, and then co-cultured with activated Pmel-1 T cells. After three days, the depletion of Mi-2β knockdown B16F10 cells was determined by FACS, comparing the percentage of knockdown cells (GFP positive) to control B16F10 cells (GFP negative).

A further series has as its target T11, SLC25A24 (Homo sapiens, UniProt Q6NUK1).
T11 construct: to get the native cell lysate; endogenous in cells; host or cells: A375 cell lysate
Nature of the series: ATPase profile (ATP acyl phosphate probe). It counts as binding. As to conditions: SLC25A24, SEQ ID NO: 192, ATP BS.

A further series addresses T12, CLPB (Homo sapiens, UniProt Q9H078).
T12 construct: endogenous in cells; host or cells: A375 cell lysate
Briefly: ATPase profile (ATP acyl phosphate probe). Type of series: binding. The conditions noted are these: SEQ ID NO: 58, ATP BS.

In another series the target is T13, PSMC1 (Homo sapiens, UniProt P62191).
T13 construct: endogenous in cells; host or cells: A375 cell lysate
Briefly: ATPase profile (ATP acyl phosphate probe). Type of series: binding. As to conditions: PSMC1, SEQ ID NO: 173, ATP BS.

T6 sequence (P48637 whole entry): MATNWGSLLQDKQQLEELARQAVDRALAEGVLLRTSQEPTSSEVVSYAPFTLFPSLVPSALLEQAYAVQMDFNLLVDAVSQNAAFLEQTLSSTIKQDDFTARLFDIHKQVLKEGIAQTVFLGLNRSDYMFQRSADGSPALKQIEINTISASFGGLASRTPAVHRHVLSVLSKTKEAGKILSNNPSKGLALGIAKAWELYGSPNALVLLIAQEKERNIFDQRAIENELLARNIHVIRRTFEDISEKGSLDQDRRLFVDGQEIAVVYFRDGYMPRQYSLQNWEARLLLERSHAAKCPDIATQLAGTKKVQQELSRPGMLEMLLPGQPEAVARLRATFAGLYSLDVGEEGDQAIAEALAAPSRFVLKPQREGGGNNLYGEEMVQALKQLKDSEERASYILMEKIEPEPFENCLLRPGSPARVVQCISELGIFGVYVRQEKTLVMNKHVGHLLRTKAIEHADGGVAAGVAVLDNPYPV
T1 sequence (P31327 39-1500): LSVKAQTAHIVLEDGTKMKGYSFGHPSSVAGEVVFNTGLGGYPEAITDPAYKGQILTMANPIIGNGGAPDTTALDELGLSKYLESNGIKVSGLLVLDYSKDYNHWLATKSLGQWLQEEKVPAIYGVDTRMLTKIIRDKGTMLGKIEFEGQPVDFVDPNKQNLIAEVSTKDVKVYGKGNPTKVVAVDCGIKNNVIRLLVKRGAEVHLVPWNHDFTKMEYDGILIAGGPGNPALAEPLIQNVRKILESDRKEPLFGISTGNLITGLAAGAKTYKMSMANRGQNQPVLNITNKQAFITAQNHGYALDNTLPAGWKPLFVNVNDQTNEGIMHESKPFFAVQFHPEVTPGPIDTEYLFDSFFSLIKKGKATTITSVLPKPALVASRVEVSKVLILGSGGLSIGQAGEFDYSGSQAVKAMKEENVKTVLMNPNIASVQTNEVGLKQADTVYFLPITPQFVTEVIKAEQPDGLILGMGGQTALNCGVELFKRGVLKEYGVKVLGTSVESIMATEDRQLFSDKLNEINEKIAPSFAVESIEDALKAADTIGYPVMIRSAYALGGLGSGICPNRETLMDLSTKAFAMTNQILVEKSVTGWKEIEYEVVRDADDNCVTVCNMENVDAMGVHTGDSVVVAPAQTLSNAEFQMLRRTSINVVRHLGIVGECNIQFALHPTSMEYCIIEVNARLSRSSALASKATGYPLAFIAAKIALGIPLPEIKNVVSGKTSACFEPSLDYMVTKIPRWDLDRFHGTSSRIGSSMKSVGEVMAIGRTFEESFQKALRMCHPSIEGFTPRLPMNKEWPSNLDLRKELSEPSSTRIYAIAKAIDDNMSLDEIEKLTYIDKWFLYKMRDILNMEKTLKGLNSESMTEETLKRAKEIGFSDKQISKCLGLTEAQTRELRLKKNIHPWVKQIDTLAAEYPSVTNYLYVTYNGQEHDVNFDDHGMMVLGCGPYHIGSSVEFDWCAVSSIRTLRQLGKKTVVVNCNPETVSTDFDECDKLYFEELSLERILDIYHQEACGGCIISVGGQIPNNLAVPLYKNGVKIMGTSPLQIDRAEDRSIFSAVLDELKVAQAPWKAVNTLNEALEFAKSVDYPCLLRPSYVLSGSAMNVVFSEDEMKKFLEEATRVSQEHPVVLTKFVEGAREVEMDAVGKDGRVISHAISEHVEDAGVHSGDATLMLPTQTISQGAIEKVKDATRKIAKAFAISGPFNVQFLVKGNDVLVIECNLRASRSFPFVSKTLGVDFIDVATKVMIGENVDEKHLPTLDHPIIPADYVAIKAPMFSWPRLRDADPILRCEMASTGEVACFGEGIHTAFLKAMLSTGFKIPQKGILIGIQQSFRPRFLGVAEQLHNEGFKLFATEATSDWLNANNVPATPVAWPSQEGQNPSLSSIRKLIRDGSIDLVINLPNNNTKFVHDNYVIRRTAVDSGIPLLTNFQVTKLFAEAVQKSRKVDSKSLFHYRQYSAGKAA
T10 sequence (O43933 whole entry): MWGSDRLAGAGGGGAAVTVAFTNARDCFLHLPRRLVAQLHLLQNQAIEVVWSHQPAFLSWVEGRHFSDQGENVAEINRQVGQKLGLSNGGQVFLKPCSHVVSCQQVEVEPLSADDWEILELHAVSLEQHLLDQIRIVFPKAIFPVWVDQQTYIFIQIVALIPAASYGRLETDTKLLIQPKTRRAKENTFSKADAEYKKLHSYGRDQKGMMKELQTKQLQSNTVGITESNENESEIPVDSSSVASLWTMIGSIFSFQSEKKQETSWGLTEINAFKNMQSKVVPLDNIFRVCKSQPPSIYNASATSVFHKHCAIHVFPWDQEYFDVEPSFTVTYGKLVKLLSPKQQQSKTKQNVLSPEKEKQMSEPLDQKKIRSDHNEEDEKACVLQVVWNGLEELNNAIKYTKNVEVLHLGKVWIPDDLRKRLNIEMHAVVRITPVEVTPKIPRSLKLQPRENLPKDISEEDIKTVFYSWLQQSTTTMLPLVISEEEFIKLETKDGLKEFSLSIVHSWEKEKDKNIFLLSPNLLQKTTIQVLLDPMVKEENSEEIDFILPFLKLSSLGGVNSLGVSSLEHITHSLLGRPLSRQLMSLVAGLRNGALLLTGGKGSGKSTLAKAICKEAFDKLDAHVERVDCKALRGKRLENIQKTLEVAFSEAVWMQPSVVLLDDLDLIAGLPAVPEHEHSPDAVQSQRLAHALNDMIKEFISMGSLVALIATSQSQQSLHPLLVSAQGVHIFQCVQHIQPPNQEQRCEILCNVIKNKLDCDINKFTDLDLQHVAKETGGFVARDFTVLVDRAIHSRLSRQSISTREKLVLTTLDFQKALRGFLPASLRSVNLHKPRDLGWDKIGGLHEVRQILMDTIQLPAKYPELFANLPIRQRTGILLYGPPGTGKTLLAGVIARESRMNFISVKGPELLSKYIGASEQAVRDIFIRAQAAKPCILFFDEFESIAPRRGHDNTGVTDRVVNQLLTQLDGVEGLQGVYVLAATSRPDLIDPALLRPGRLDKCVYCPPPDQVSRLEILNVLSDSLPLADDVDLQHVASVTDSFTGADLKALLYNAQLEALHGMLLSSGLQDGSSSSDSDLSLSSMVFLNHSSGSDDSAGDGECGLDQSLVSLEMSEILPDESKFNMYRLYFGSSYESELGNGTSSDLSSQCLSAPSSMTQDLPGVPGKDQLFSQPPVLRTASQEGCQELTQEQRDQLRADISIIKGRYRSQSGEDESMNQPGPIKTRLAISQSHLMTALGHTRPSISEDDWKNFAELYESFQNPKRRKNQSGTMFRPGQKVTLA
T10 sequence (Q13608 whole entry partner): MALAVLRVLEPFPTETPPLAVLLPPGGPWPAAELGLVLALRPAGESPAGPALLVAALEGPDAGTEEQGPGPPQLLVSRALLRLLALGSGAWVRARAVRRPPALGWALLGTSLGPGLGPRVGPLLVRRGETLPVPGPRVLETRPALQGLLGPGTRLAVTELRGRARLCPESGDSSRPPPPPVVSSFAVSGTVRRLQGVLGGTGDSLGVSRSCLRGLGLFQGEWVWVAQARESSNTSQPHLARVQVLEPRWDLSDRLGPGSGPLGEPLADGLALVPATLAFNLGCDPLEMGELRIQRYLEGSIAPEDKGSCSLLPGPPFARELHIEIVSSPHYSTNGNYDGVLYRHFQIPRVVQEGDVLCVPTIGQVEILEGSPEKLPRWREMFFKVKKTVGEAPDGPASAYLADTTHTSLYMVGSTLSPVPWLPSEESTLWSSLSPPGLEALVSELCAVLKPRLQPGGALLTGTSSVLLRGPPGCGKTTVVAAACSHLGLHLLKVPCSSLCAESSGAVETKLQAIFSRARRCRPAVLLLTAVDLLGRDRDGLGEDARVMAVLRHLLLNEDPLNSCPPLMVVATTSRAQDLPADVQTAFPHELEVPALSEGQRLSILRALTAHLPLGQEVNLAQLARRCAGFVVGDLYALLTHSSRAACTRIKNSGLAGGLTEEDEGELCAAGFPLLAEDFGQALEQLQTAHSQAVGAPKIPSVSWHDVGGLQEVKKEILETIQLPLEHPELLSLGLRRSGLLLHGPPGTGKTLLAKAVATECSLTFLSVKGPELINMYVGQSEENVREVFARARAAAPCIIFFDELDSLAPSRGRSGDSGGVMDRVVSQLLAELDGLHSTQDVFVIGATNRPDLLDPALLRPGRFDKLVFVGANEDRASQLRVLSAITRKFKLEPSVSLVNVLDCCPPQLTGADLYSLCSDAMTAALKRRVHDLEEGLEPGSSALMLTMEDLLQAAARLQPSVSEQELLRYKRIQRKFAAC
T9 sequence (Q6L8Q7 43-609): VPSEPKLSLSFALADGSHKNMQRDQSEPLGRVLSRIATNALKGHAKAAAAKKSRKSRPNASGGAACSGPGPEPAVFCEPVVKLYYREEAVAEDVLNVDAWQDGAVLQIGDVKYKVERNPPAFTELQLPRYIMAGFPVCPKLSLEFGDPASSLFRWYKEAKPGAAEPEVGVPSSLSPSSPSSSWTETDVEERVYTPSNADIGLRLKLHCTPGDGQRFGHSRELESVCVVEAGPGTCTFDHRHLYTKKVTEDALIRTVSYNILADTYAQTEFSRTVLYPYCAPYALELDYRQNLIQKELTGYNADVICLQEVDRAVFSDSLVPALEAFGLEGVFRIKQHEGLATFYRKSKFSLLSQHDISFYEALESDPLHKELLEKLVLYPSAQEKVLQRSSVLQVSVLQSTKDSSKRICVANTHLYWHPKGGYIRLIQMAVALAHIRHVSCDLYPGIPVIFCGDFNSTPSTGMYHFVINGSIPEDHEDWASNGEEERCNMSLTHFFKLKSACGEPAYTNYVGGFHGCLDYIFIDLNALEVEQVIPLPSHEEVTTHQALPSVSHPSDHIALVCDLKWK

Turning to `Cn1c(=O)[nH]c2ccc(-c3cccc(C(=O)NC4CCn5ccnc5C4)c3)cc21` (stereo not shown) [Z36-MP5, 3-(3-methyl-2-oxo-2,3-dihydro-1H-benzo[d]imidazol-5-yl)-N-(5,6,7,8-tetrahydroimidazo[1,2-a]pyridin-7-yl)benzamide], the “Inhibition (%) by 1 μM Z36-MP5” value was 1.16% on CPS1; −4.85% at AFG3L2; −4.76% at ABCE1; 2.21% on AK5; 6.85% at HNRNPU; −5.02% on GSS (SEQ ID NO: 87, ATP BS). Moreover, the “Inhibition (%) by 1 μM Z36-MP5” value on GSS (SEQ ID NO: 88, ATP BS) is listed as 7.54%; at LONP1 it was 1.81%; at ASS1 it was 0.53%; at PDE12 it was −5.87%; on PEX1, −4.27%; on SLC25A24, 11.88%. Also, the “Inhibition (%) by 1 μM Z36-MP5” value is −9.00% at CLPB and −7.42% at PSMC1. The “tolerability (mouse weight, organ tissue histological staining)” value in [1] was “tolerated without significant toxicity”. Further, in the series on B16F10 cells, the “T cell-mediated killing of B16F10 cells” value is “significantly induced”.
